Assays:
[1] = tested on: H3K9me2 in MDA-MB-231 cells; experiment: MDA-MB-231 H3K9me2 in-cell western assay; assay type: cell-based; details: Homo sapiens, read-out: EHMT2 ICW (IC50 μM)
In short: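 MDA-MB-231 cells (3,000/well) exposed to compound for two consecutive 48 h periods at 37 °C, then fixed and stained for H3K9me2, with DRAQ5 as DNA stain and infrared read at 700/800 nm. Percent inhibition was set between DMSO and UNC0638 control wells. IC50 came from triplicate dose–response fits with a four-parameter model, top 100%, bottom 0%.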

EHMT1 = molecular target: T1, EHMT1 (Homo sapiens, UniProt Q9H9B1); experiment: EHMT1 PEP (EHMT1 peptide enzyme assay); assay type: biochemical; details: peptide substrate enzyme assay
T1 sequence (Q9H9B1 1-1298): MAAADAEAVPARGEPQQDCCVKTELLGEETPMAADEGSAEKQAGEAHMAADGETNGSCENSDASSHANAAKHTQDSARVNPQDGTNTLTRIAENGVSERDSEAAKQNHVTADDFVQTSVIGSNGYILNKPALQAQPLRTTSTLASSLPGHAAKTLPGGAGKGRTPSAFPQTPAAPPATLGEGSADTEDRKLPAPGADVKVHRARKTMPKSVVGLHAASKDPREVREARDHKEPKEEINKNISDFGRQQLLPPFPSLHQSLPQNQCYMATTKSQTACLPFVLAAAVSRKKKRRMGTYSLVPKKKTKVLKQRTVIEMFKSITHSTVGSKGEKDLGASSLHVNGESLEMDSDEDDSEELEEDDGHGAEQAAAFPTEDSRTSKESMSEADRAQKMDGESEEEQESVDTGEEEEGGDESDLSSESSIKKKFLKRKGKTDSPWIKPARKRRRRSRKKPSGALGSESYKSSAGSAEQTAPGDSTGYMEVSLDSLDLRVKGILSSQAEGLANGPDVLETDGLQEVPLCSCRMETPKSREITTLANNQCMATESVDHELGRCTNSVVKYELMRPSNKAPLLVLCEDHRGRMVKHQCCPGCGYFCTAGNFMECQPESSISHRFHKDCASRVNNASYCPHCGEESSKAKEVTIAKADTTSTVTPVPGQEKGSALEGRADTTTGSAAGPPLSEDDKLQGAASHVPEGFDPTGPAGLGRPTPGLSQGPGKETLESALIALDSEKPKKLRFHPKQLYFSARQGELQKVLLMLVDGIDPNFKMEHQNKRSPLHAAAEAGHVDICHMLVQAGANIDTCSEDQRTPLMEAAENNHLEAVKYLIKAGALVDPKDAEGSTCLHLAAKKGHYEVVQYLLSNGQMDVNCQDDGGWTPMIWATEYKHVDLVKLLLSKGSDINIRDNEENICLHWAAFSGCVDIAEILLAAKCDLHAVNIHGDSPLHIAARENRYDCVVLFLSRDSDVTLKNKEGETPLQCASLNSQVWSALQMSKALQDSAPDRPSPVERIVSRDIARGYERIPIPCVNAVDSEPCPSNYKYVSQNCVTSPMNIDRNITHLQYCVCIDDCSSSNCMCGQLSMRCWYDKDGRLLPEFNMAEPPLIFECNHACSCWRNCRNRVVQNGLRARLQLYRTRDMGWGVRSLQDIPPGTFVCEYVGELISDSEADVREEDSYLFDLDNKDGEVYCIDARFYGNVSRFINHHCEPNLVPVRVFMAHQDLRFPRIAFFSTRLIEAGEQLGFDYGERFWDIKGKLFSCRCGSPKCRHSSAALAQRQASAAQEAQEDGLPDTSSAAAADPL

Compound | IC50 [1] [µM] | IC50 (EHMT1) [µM]
CNc1cc(C)nc(Nc2ccc(OC)c(-n3cc(CN4CCC4)nn3)c2)n1 [Compound 121] | 0.1 to 1 | 0.1 to 1
CNCc1cn(-c2cc3nc(NC)cc(C)c3cc2OC)nn1 [Compound 122] | 1 to 10 | 0.1 to 1
CNc1cc(C)c2cc(OC)c(-n3cc(C4CCCN4)nn3)cc2n1 (stereo not shown) [Compound 125] | 0.1 to 1 | < 0.1
CNC(=O)c1nn(-c2cc(Nc3nc(C)cc(NC)n3)ccc2OC)cc1C [Compound 134] | > 10 | > 10
CNc1cc(C)nc(Nc2ccc(OC)c(-n3cc(C4CCCN4C)nn3)c2)n1 (stereo not shown) [Compound 136] | 0.1 to 1 | 0.1 to 1
CNc1cc(C)nc(Nc2ccc(OC)c(-n3cc(C4CCCN4)nn3)c2)n1 (stereo not shown) [Compound 137, N2-(4-methoxy-3-(4-(pyrrolidin-2-yl)-1H-1,2,3-triazol-1-yl)phenyl)-N4,6-dimethylpyrimidine-2,4-diamine] | 0.1 to 1 | < 0.1
CNc1cc(C)nc(Nc2ccc(OC)c(-n3nnc(C)c3CN(C)C)c2)n1 [Compound 138] | > 10 | > 10
CNc1cc(C)nc(Nc2ccc(OC)c(-n3nnc(CN(C)C)c3C)c2)n1 [Compound 139] | > 10 | > 10
CCN(CC)Cc1cn(-c2cc(Nc3nc(C)cc(NC)n3)ccc2OC)nn1 [Compound 143] | 1 to 10 | 0.1 to 1
CNc1cc(C)nc(Nc2ccc(OC)c(-n3cc4cc(C)ccc4n3)c2)n1 [Compound 144] | > 10 | 1 to 10
CNc1cc(C)nc(Nc2ccc(OC)c(-n3cc4cc(C5CC5)ccc4n3)c2)n1 [Compound 145] | > 10 | > 10

From patent publication US20220235065A1 (Epizyme, Inc., priority 2016, published 2022)
